Converted amounts (≈) assume the structure as drawn.
How the values were obtained:
[1] = humans, taken orally; cited from earlier work
[2] = Plasma CBD concentration after dosing (FIG. 5); assay type: in vivo
[3] = CoQ10 absorption in plasma after single dose, clinical study; assay type: in vivo, human
Method: The purpose of the study was to investigate compare the CoQ10 level of absorption in the plasma of a phospholipid krill oil+CoQ10 product to a comparator CoQ10-product (without any krill oil).
Absorption levels of CoQ10 in plasma were measured at time (T)=0, 2, 4, 6 and 8 hours after the single-dose (2 soft gels) intake of the study products. A 7-day minimum washout period between the two doses was specified.
A total of 13 subjects successfully completed the study.

[4] = cited from earlier work
[5] = cited from earlier work; remark: listed apart in the source

## C=C(C)[C@@H]1CCC(C)=C[C@H]1c1c(O)cc(CCCCC)cc1O [CBD, Cannabidiol]
[1]
  bioavailability: around 6%
[2]; krill oil compared to MCT, FIG. 5
  increase of bioavailability of CBD: 3 fold
[2]; krill oil vs medium chain triglyceride (MCT) oil
  absorption of CBD (plasma CBD concentration): much greater extent

## COC1=C(OC)C(=O)C(C/C=C(\C)CC/C=C(\C)CC/C=C(\C)CC/C=C(\C)CC/C=C(\C)CC/C=C(\C)CC/C=C(\C)CC/C=C(\C)CC/C=C(\C)CCC=C(C)C)=C(C)C1=O [CoQ10, Coenzyme Q10]
[3]; 0-8 hours after single dose, 13 subjects
  absorption of CoQ10 in plasma, change from baseline (in words): No significant absorption
[3]; 2 hours
  Change of plasma CoQ10 from baseline: −11.49%
[3]; 4 hours
  Change of plasma CoQ10 from baseline: −4.53%
[3]; 6 hours
  Change of plasma CoQ10 from baseline: 1.71%
[3]; 8 hours
  Change of plasma CoQ10 from baseline: 6.15%
[3]; human, plasma, oral, 2 soft gels, 2 hours after single dose
  concentration at 2 h: 8780 ng/mL
[3]; human, plasma, oral, 2 soft gels, 4 hours after single dose
  concentration at 4 h: 9570 ng/mL
[3]; human, plasma, oral, 2 soft gels, 6 hours after single dose
  concentration at 6 h: 10100 ng/mL
[3]; human, plasma, oral, 2 soft gels, 8 hours after single dose
  concentration at 8 h: 10500 ng/mL
[3]; human, plasma, oral, 2 soft gels, Baseline
  concentration at 0 h: 9920 ng/mL

## O=c1c(O)c(-c2ccc(O)c(O)c2)oc2cc(O)ccc12 [Fisetin]
[4]
  logP: 1.81-2.03
[5]
  solubility: < 1000 µg/mL
  Solubility ethanol: 5000 µg/mL (≈ 17.5 mM)
[5]; water
  Solubility water: 150 µg/mL (≈ 0.524 mM)

## O=c1c(O)c(-c2ccc(O)c(O)c2)oc2cc(O)cc(O)c12 [Quercetin]
[4]
  logP: 1.50
[5]
  Solubility ethanol: 2000 µg/mL (≈ 6.62 mM)
